Assay results reported in patent publication US20150315218A1, “SALTS OF PRODRUGS OF PIPERAZINE AND SUBSTITUTED PIPERIDINE ANTIVIRAL AGENTS” (Bristol-Myers Squibb Company, priority 2004, published 2015).
Like-named read-outs stand apart in the source and are kept apart here.

Legend:
[1] = IV and PO pharmacokinetic studies of prodrug salts (Iab, Ibb, Icb) in the monkey, with historical parent data; type: in vivo, cynomolgus monkeys; settings: monkey; for Tmax: read-out: Tmax (hr), PO
Description: The IV and PO studies of Iab were conducted in a crossover fashion in three male cynomolgus monkeys (11±1.2 kg, Charles River Biomedical Research Foundation, Houston, Tex.). There was a two-week washout period between the IV and PO studies.
In the IV study, Iab was infused via the femoral vein at 1.3 mg/kg (free acid, or 1.1 mg/kg of IVa equivalent) over 5 min at a constant rate of 0.1 mL/kg/min. The concentration of the dosing solution was 2.6 mg/mL, and the dosing volume was 0.5 mL/kg. Serial blood samples were collected from the femoral artery before dosing and at 5, 10, 15, 30, 45 min, 1, 2, 4, 6, 8 and 24 hr after dosing.
In the PO study, the monkeys were fasted overnight before dosing. Iab was administered by oral gavage at 7.1 mg/kg (free acid, or 5.6 mg/kg of IVa equivalent). The concentration of the dosing solution was 14.2 mg/mL, and the dosing volume was 0.5 mL/kg. Serial blood samples were collected before dosing and at 15, 30, 45 min, 1, 2, 4, 6, 8 and 24 hr after dosing.
The IV and PO studies of Ibb were conducted in a crossover fashion in three male cynomolgus monkeys (9.9±2.4 kg, Charles River Biomedical Research Foundation, Houston, Tex.). There was a two-week washout period between the IV and PO studies.
The concentration of the dosing solution was 2.7 mg/mL, and the dosing volume was 0.5 mL/kg. Serial blood samples were collected from the femoral artery before dosing and at 5, 10, 15, 30, 45 min, 1, 2, 4, 6, 8 and 24 hr after dosing.
In the PO study, the monkeys were fasted overnight before dosing. […] The concentration of the dosing solution was 5.8 mg/mL, and the dosing volume was 1 mL/kg. Serial blood samples were collected before dosing and at 15, 30, 45 min, 1, 2, 4, 6, 8 and 24 hr after dosing.
The IV and PO studies of Icb were conducted in a crossover fashion in three male cynomolgus monkeys (10±1.6 kg, Charles River Biomedical Research Foundation, Houston, Tex.). There was a two-week washout period between the IV and PO studies.
The concentration of the dosing solution was 2.8 mg/mL, and the dosing volume was 0.5 mL/kg. Serial blood samples were collected from the femoral artery before dosing and at 5, 10, 15, 30, 45 min, 1, 2, 4, 6, 8 and 24 hr after dosing.
In the PO study, the monkeys were fasted overnight before dosing. […] The concentration of the dosing solution was 9.8 mg/mL, and the dosing volume was 0.5 mL/kg. Serial blood samples were collected before dosing and at 15, 30, 45 min, 1, 2, 4, 6, 8 and 24 hr after dosing.

[2] = Single-dose oral toxicokinetic study of prodrugs in rats; type: in vivo, rat; settings: CD, rat, plasma; for concentration at 24 h / half-life / Cmax: analyte = label; for concentration at 24 h: read-out: C24 h; for half-life: read-out: T½ (converted); for AUC: read-out: AUC
Description: A 1-day oral toxicokinetic study in rats was conducted using the prodrug Iab (monolysine salt). Iab was administered at dosages of 16, 72, and 267 mg/kg (free acid) by oral gavage to three male rats/group using water as the vehicle (solution formulation). The dosages of prodrug free acid correspond to IVa (parent) molar equivalent dosages of 13, 57, and 211 mg/kg, respectively. The endpoint evaluated was plasma toxicokinetics of Iab and IVa in the individual rats.
A 1-day oral toxicokinetic study in rats was conducted by using the prodrug Ibb (monolysine salt). Ibb was administered at dosages of 19, 64, and 236 mg/kg (free acid) by oral gavage to three male rats/group using water as the vehicle (solution formulation).
A 1-day oral toxicokinetic study in rats was conducted using the prodrug Icb (disodium salt). Icb was administered at dosages of 5, 25, and 200 mg/kg (free acid) by oral gavage to three male rats/group using water as the vehicle (solution formulation).

[3] = Single-dose toxicokinetic and tolerability study of prodrugs in dogs; type: in vivo, dog; settings: for Cmax: IVa in female dogs
Description: A multi-phase study was conducted to evaluate the tolerability of the prodrug, Iab (monolysine salt) at dosages of 24, 90, or 240 mg/kg (free acid, molar equivalent to 19, 71, or 190 mg/kg of parent IVa, respectively) and the toxicokinetics of lab and IVa (4). Iab was administered to two female dogs/group once daily either as an aqueous solution (24 or 90 mg/kg) or dry-filled capsules (24, 90 [once and twice daily] or 240 mg/kg). The endpoints were: clinical signs, body weight, food consumption, and plasma toxicokinetics of lab and IVa. In all cases, a 1-week washout period was used between doses for all phases of the study. […]
On day 1, Icb was administered to one dog/sex/group once daily in dry-filled capsules at the above dosages. A 1-week washout period was used between doses in the study. On day 8, Icb was administered to one dog/sex/group once daily as an aqueous solution at 25 mg/kg or twice daily in dry-filled capsules at 46 or 125 mg/kg BID.

**Q.** For `COc1ncc(OC)c2c(C(=O)C(=O)N3CCN(C(=O)c4ccccc4)CC3)c[nH]c12` [IVa, N-(benzoyl)-N′-[(4,7-dimethoxy-6-azaindol-3-yl)-oxoacetyl]piperazine], which AUC ([1]; cynomolgus monkey, plasma, historical parent, IV 1 mg/kg, read-out: AUCtot (μM · hr), IV) is on record?
**A.** 9.2 ± 0.53 µM·h

**Q.** What about the clearance ([1]; cynomolgus monkey, plasma, historical parent, IV 1 mg/kg, read-out: CLtot (mL/min/kg), IV) of the same molecule?
**A.** 4.3 ± 0.26 mL/min/kg

**Q.** And the MRT ([1]; cynomolgus monkey, plasma, historical parent, IV 1 mg/kg, read-out: MRT (hr), IV)?
**A.** 2.4 ± 0.15 h

**Q.** And the Vd ([1]; cynomolgus monkey, plasma, historical parent, IV 1 mg/kg, read-out: Vdss (L/kg), IV)?
**A.** 0.63 ± 0.39 L/kg

**Q.** And the half-life ([1]; cynomolgus monkey, plasma, historical parent, IV 1 mg/kg, read-out: t1/2 (hr), IV (converted))?
**A.** 4.7 ± 0.31 h

**Q.** And the AUC ([1]; cynomolgus monkey, plasma, historical parent, PO 5 mg/kg, read-out: AUCtot (μM · hr), PO)?
**A.** 27 ± 2.9 µM·h

**Q.** And the bioavailability ([1]; cynomolgus monkey, plasma, historical parent, PO 5 mg/kg, read-out: Bioavailability (%))?
**A.** 60%

**Q.** What about the concentration at 24 hr ([1]; cynomolgus monkey, plasma, historical parent, PO 5 mg/kg, read-out: C-24 hr (μM), PO) of the same molecule?
**A.** 0.074 ± 0.032 µM

**Q.** And the Cmax ([1]; cynomolgus monkey, plasma, historical parent, PO 5 mg/kg, read-out: Cmax (μM), PO)?
**A.** 5.8 ± 1.2 µM

**Q.** What about the Tmax ([1]; cynomolgus monkey, plasma, historical parent, PO 5 mg/kg) of the same molecule?
**A.** 2.7 h

**Q.** What about the half-life ([1]; cynomolgus monkey, plasma, historical parent, PO 5 mg/kg, read-out: t1/2 (hr), PO (converted)) of the same molecule?
**A.** 4.2 ± 0.64 h

**Q.** What about the AUC ([1]; male, cynomolgus monkey, plasma, after IV prodrug (~1.1 mg/kg parent equivalent), analyte = label, read-out: AUCtot (μM · hr), IV) of the same molecule?
**A.** 7.1 ± 1 µM·h

**Q.** What about the half-life ([1]; male, cynomolgus monkey, plasma, after IV prodrug, analyte = label, read-out: t1/2 (hr), IV (converted)) of the same molecule?
**A.** 4.8 ± 1.9 h

**Q.** And the bioavailability ([1]; male, cynomolgus monkey, plasma, oral prodrug, read-out: Bioavailability (%) of parent from prodrug)?
**A.** 66%

**Q.** And the Tmax ([1]; male, cynomolgus monkey, plasma, parent after oral prodrug (~4-6 mg/kg parent equivalent))?
**A.** 0.83 h

**Q.** What about the half-life ([1]; male, cynomolgus monkey, plasma, parent after oral prodrug, read-out: t1/2 (hr), PO (converted)) of the same molecule?
**A.** 4.8 ± 1.3 h

**Q.** What about the “IV AUC Ratio of parent (formed from prodrug vs historical parent study)” value [1] of the same molecule?
**A.** 0.70

**Q.** And the “PO AUC Ratio of parent” value ([1]; oral prodrug vs historical parent)?
**A.** 1.1

**Q.** What about the concentration at 24 h ([2]; male rats, Iab 16 mg/kg PO) of the same molecule?
**A.** 0.09 µM

**Q.** And the half-life ([2]; male rats, Iab 16 mg/kg PO)?
**A.** 3.2 h

**Q.** And the concentration at 24 h ([2]; male rats, Iab 72 mg/kg PO)?
**A.** 0.027 µM

**Q.** What about the half-life ([2]; male rats, Iab 72 mg/kg PO) of the same molecule?
**A.** 2.3 h

**Q.** What about the AUC ([2]; male rats, Iab 267 mg/kg PO, AUC from zero to ∞) of the same molecule?
**A.** 1160 µM·h

**Q.** What about the concentration at 24 h ([2]; male rats, Iab 267 mg/kg PO) of the same molecule?
**A.** 1.9 µM

**Q.** And the half-life ([2]; male rats, Iab 267 mg/kg PO)?
**A.** 3.4 h

**Q.** And the Cmax ([2]; male rats, single oral dose Iab 16 mg/kg (13 mg/kg IVa molar equiv.), water)?
**A.** 26 µM

**Q.** And the Cmax ([2]; male rats, single oral dose Iab 72 mg/kg (57 IVa equiv.))?
**A.** 104 µM

**Q.** What about the Cmax ([2]; male rats, single oral dose Iab 267 mg/kg (211 IVa equiv.)) of the same molecule?
**A.** 214 µM

**Q.** And the AUC ([2]; male, po, 16 mg/kg)?
**A.** 67 µM·h

**Q.** What about the AUC ([2]; male, po, 72 mg/kg) of the same molecule?
**A.** 261 µM·h

**Q.** And the Cmax ([3]; Iab 24 mg/kg (19 IVa equiv.), Dry-filled capsule, Dogs #4201, #4202)?
**A.** 85.6 µM

**Q.** And the Cmax ([3]; Iab 24 mg/kg (19 IVa equiv.), Solution, Dogs #1201, #1202)?
**A.** 66.5 µM

**Q.** What about the Cmax ([3]; Iab 90 mg/kg (71 IVa equiv.), Solution, Dogs #3201, #3202) of the same molecule?
**A.** 125 µM

**Q.** And the “AUC0-∞” value ([3]; IVa, Iab 24 mg/kg Dry-filled capsule, Dogs #4201, #4202)?
**A.** 514 µM·h

**Q.** And the concentration at 24 h ([3]; IVa, Iab 24 mg/kg Dry-filled capsule, Dogs #4201, #4202, read-out: C24h)?
**A.** 0.87 µM

**Q.** What about the “AUC0-∞” value ([3]; IVa, Iab 24 mg/kg Solution, Dogs #1201, #1202) of the same molecule?
**A.** 330 µM·h
